Publication PMC11633360 (ChemistryOpen, 2024)
Values after ≈ are worked out from the molar mass of the structure shown. Values joined by “and” are separate entries in the source; they are usually repeats but may differ in a detail not shown here. Identical values can stand only once.

Experiments:
[1] = Nitric oxide (NO) scavenging activity; settings: sodium nitroprusside, pH 7.4, 2 hr, 37 °C, Griess reagent
Procedure: The NO radical mop‐up ability of the compounds was evaluated using Kurian et al.[49] previous protocol. […] After 2 hr equilibration at 37 °C, 0.250 mL of Griess reagent was added, and the absorbance of the coloured solution produced was measured at 545 nm against a blank solution lacking the test samples. Subsequently, the % NO scavenging antioxidant capacity of the compounds was expressed as: %Nitricoxidescavenging=1-TestsampleAbs/BlankAbs×100

Mtb H37Rv = experiment: microbe, parasite or virus in culture; format: cell-based, Mycobacterium tuberculosis; settings: for MIC90: Mycobacterium tuberculosis, H37RV, read-out: GFP Assay – 10pt DR: MIC90
[2] = DPPH radical scavenging activity; settings: DPPH 300 μM in methanol, 30 minutes, 25 °C
Procedure: The capacity of the chemical compounds to decolourize the purple colour of DPPH solution was investigated following a modified procedure of Turkoglu et al..[48] […] The solution was mixed gently before equilibration in a dark compartment for 30 minutes at 25 °C. […] The DPPH radical scavenging ability of each compound was estimated using the expression below: %DPPHscavenging=1-TestsampleAbs/BlankAbs×100

SMILES	IC50 [1] [µM]	GFP Assay – 10pt DR: MIC90 (Mtb H37Rv)	MIC90 (Mtb H37Rv) [µM]	IC50 [2] [µM]	melting point [°C]
Nc1ncnc2c1c(N1CCN(CCO)CC1)nn2-c1ccnc2cc(Cl)ccc12 [10 g, 2‐(4‐(4‐Amino‐1‐(7‐Chloroquinolin‐4‐yl)‐1H‐Pyrazolo[3,4–d]pyrimidin‐3‐yl)piperazin‐1‐yl)ethanol]	280	>125 µM	62.5 (≈ 26.6 µg/mL)	2960	–
FC(F)(F)Oc1ccc(Nc2ccnc3cc(Cl)ccc23)cc1 [12 g, 7‐Chloro‐N‐(4‐(trifluoromethoxy)phenyl)quinolin‐4‐Amine]	> 4000	–	–	> 4000	> 250
O=[N+]([O-])c1ccc(Nc2ccnc3cc(Cl)ccc23)cc1 [12 h, 7‐Chloro‐N‐(4‐Nitrophenyl)quinolin‐4‐Amine]	650	62.5 µM	> 125	80	–
O=C1O[C@H]([C@@H](O)CO)C(O)=C1O [Ascorbic acid, reference compound]	> 4000	–	–	50	–
Nc1ncnc2[nH]ncc12 [Compound 4, 1H‐Pyrazolo[3,4–d]pyrimidin‐4‐Amine]	780	–	–	> 4000	–
Nc1ncnc2[nH]nc(N3CCCCC3)c12 [Compound 8a, 3‐(piperidin‐1‐yl)‐1H‐Pyrazolo[3,4–d]pyrimidin‐4‐Amine]	800	125 µM	> 125	3400	–
CC1CCN(c2n[nH]c3ncnc(N)c23)CC1 [Compound 8b, 3‐(4‐methylpiperidin‐1‐yl)‐1H‐pyrazolo[3,4–d]pyrimidin‐4‐amine]	1010	–	–	> 4000	–
Nc1ncnc2[nH]nc(N3CCOCC3)c12 [Compound 8c, 3‐Morpholino‐1H‐Pyrazolo[3,4–d]pyrimidin‐4‐Amine]	880	–	–	> 4000	–
CN1CCN(c2n[nH]c3ncnc(N)c23)CC1 [Compound 8d, 3‐(4‐Methylpiperazin‐1‐yl)‐1H‐Pyrazolo[3,4–d]pyrimidin‐4‐Amine]	800	62.5 µM	> 125	580	–
CCN1CCN(c2n[nH]c3ncnc(N)c23)CC1 [Compound 8e, 3‐(4‐Ethylpiperazin‐1‐yl)‐1H‐Pyrazolo[3,4–d]pyrimidin‐4‐Amine]	980	62.5 µM	> 125	930	–
Nc1ncnc2[nH]nc(N3CCN(CCO)CC3)c12 [Compound 8f]	600	–	> 125	3540	–
Clc1ccc2c(Cl)ccnc2c1 [Compound 9, 4,7‐dichloroquinoline]	820	–	> 125	> 4000	–
Nc1ncnc2c1cnn2-c1ccnc2cc(Cl)ccc12 [Compound 10a, 1‐(7‐Chloroquinolin‐4‐yl)‐1H‐Pyrazolo[3,4–d]pyrimidin‐4‐Amine]	2590	–	> 125	> 4000	–
Nc1ncnc2c1c(N1CCCCC1)nn2-c1ccnc2cc(Cl)ccc12 [Compound 10b, 1‐(7‐Chloroquinolin‐4‐yl)‐3‐(piperidin‐1‐yl)‐1H‐Pyrazolo[3,4–d]pyrimidin‐4‐Amine]	> 4000	–	> 125	> 4000	–
CC1CCN(c2nn(-c3ccnc4cc(Cl)ccc34)c3ncnc(N)c23)CC1 [Compound 10c, 1‐(7‐chloroquinolin‐4‐yl)‐3‐(4‐methylpiperidin‐1‐yl)‐1H‐pyrazolo[3,4–d]pyrimidin‐4‐amine]	2780	>125 µM and 125 µM	62.5 (≈ 24.6 µg/mL)	2100	–
Nc1ncnc2c1c(N1CCOCC1)nn2-c1ccnc2cc(Cl)ccc12 [Compound 10d, 1‐(7‐Chloroquinolin‐4‐yl)‐3‐Morpholino‐1H‐Pyrazolo[3,4–d]pyrimidin‐4‐Amine]	2460	–	> 125	> 4000	–
CN1CCN(c2nn(-c3ccnc4cc(Cl)ccc34)c3ncnc(N)c23)CC1 [Compound 10e, 1‐(7‐Chloroquinolin‐4‐yl)‐3‐(4‐Methylpiperazin‐1‐yl)‐1H‐Pyrazolo[3,4–d]pyrimidin‐4‐Amine]	> 4000	–	–	> 4000	–
CCN1CCN(c2nn(-c3ccnc4cc(Cl)ccc34)c3ncnc(N)c23)CC1 [Compound 10f, 1‐(7‐Chloroquinolin‐4‐yl)‐3‐(4‐Ethylpiperazin‐1‐yl)‐1H‐Pyrazolo[3,4–d]pyrimidin‐4‐Amine]	800	>125 µM and 125 µM	62.5 (≈ 25.6 µg/mL)	> 4000	–
Clc1ccc2c(Nc3ccccc3)ccnc2c1 [Compound 12a, 7‐Chloro‐N‐Phenylquinolin‐4‐Amine]	500	62.5 µM and >125 µM	125 (≈ 31.8 µg/mL)	> 4000	> 250
Fc1ccc(Nc2ccnc3cc(Cl)ccc23)cc1 [Compound 12b, 7‐Chloro‐N‐(4‐Fluorophenyl)quinolin‐4‐Amine]	1920	–	–	> 4000	–
Clc1ccc(Nc2ccnc3cc(Cl)ccc23)cc1 [Compound 12c, 7‐Chloro‐N‐(4‐Chlorophenyl)quinolin‐4‐Amine]	> 4000	–	> 125	> 4000	> 250
Clc1ccc2c(Nc3ccc(Br)cc3)ccnc2c1 [Compound 12d, N‐(4‐Bromophenyl)‐7‐Chloroquinolin‐4‐Amine]	> 4000	–	> 125	> 4000	> 250
Cc1ccc(Nc2ccnc3cc(Cl)ccc23)cc1 [Compound 12e, 7‐Chloro‐N‐(p–tolyl)quinolin‐4‐Amine]	> 4000	–	–	> 4000	> 250
COc1ccc(Nc2ccnc3cc(Cl)ccc23)cc1 [Compound 12f, 7‐Chloro‐N‐(4‐Methoxyphenyl)quinolin‐4‐Amine]	880	>125 µM	62.5 (≈ 17.8 µg/mL)	> 4000	–
